Test: Sorption time course of BPA on activated and inactivated sludge in shake flasks
Format: physicochemical
Conditions: average over the first 30 min; initial 5.0 or 10 mg/L; 15 g TSS/L
Method: To elucidate the plausible mechanisms of the biological removal of the bisphenol compounds, the removal of BPA was tested (adsorption on the biomass versus biological oxidation), and additional experiments are carried out in Erlenmeyer shake flasks containing either activated sludge or inactivated sludge in the presence of BPA. The sludge used for the tests is withdrawn from the SMBR unit. Prior to BPA addition in activated sludge sample, sludge is initially centrifuged at 8000 rpm at 4° C. for 10 min and softly washed. The inactivated sludge is prepared by subjecting sludge samples to a sterilization by adding 1.0 mL HgSO4 (20 g/L) to 200 mL of sludge. Then, the sterilized and centrifuged sample sludge is placed in conical flasks and shaken at 150 rpm at 22±2° C. for 2 h, and then centrifuged at 8000 rpm at 4° C. for 10 min. Different concentrations of BPA (0.45 to 18.2 mg/L) are added in the same mass of sludge (3.0 g of sludge diluted to 200 mL with milli-Q water). […] The flasks are shaken at 150 rpm at 22±2° C., pH=7±0.5 for 24 h and samples are taken in regular time intervals, and the amount of BPA adsorbed is determined by measuring the residual BPA concentrations in solution The same assay is carried out using inactivated sludge. […]

## CC(C)(c1ccc(O)cc1)c1ccc(O)cc1 [BPA, 2,2-Bis(4-hydroxyphenyl)propane]
  BPA removed by physical sorption: 69%

Source: patent US9199200B2, “Submerged membrane bioreactor system and biological methods for removing bisphenol compounds from municipal wastewater” (Centre de Recherche Industrielle de Québec (CRIQ), priority 2010, dated 2015)
